Experimental data from US9422293B2 (priority 2006, dated 2016).
Counter-ions that a name gives are not always drawn.

Target: rat TRPV1 (Rattus norvegicus (Rat), UniProt O35433)
Settings: read-out: Rat IC50

Sequence of rat TRPV1 (O35433 whole entry): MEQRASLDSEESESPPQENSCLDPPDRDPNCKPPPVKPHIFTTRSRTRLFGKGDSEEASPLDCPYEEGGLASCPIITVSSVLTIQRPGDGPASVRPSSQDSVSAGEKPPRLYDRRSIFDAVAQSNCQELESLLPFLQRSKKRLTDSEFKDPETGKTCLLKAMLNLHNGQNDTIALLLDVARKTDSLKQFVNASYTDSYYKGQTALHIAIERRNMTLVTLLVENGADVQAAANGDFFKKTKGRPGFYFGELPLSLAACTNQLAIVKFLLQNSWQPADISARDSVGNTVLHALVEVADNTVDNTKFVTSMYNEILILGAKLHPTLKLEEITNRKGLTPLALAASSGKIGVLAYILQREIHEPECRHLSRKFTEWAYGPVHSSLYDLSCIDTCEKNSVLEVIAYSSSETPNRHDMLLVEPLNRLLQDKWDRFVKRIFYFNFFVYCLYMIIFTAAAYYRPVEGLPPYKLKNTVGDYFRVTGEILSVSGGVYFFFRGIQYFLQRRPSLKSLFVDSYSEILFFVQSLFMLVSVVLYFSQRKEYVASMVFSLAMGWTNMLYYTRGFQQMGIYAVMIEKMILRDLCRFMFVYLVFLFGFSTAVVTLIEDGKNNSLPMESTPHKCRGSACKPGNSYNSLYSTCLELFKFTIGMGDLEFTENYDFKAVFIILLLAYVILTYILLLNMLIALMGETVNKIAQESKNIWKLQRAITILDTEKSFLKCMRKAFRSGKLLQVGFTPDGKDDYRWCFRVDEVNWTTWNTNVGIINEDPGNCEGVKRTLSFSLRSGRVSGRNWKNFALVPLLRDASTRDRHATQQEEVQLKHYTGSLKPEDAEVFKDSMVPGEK

| Structure (SMILES) | IC50 [nM] |
| --- | --- |
| CSc1nc2c(c(Nc3ccc(C(F)(F)F)cc3)n1)CCN(c1ncccc1C(F)(F)F)CC2 [Example 52, [2-Methylsulfanyl-7-(3-trifluoromethyl-pyridin-2-yl)-6,7,8,9-tetrahydro-5H-pyrimido[4,5-d]azepin-4-yl]-(4-trifluoromethyl-phenyl)-amine] | 53 |
| CS(=O)(=O)c1nc2c(c(Nc3ccc(C(F)(F)F)cc3)n1)CCN(c1ncccc1C(F)(F)F)CC2 [Example 53, [2-Methanesulfonyl-7-(3-trifluoromethyl-pyridin-2-yl)-6,7,8,9-tetrahydro-5H-pyrimido[4,5-d]azepin-4-yl]-(4-trifluoromethyl-phenyl)-amine] | > 6700 |
| FC(F)(F)c1ccc(Nc2nc(Nc3ccccc3)nc3c2CCN(c2ncccc2C(F)(F)F)CC3)cc1 [Example 54, N^2-Phenyl-N^4-(4-trifluoromethyl-phenyl)-7-(3-trifluoromethyl-pyridin-2-yl)-6,7,8,9-tetrahydro-5H-pyrimido[4,5-d]azepine-2,4-diamine] | 230 |
| FC(F)(F)c1ccc(Nc2nc(NC3CC3)nc3c2CCN(c2ncccc2C(F)(F)F)CC3)cc1 [Example 55B, N^2-Cyclopropyl-N^4-(4-trifluoromethyl-phenyl)-7-(3-trifluoromethyl-pyridin-2-yl)-6,7,8,9-tetrahydro-5H-pyrimido[4,5-d]azepine-2,4-diamine trifluoroacetic acid salt] | 150 |
| FC(F)(F)c1ccc(Nc2nc(N3CCC3)nc3c2CCN(c2ncccc2C(F)(F)F)CC3)cc1 [Example 56B, [2-Azetidin-1-yl-7-(3-trifluoromethyl-pyridin-2-yl)-6,7,8,9-tetrahydro-5H-pyrimido[4,5-d]azepin-4-yl]-(4-trifluoromethyl-phenyl)-amine trifluoroacetic acid salt] | 64 |
| OC1CCN(c2nc3c(c(Nc4ccc(C(F)(F)F)cc4)n2)CCN(c2ncccc2C(F)(F)F)CC3)CC1 [Example 59B, 1-[4-(4-Trifluoromethyl-phenylamino)-7-(3-trifluoromethyl-pyridin-2-yl)-6,7,8,9-tetrahydro-5H-pyrimido[4,5-d]azepin-2-yl]-piperidin-4-ol trifluoroacetic acid salt] | 380 |
| CC(C)N1CCN(c2nc3c(c(Nc4ccc(C(F)(F)F)cc4)n2)CCN(c2ncccc2C(F)(F)F)CC3)CC1 [Example 60B, [2-(4-Isopropyl-piperazin-1-yl)-7-(3-trifluoromethyl-pyridin-2-yl)-6,7,8,9-tetrahydro-5H-pyrimido[4,5-d]azepin-4-yl]-(4-trifluoromethyl-phenyl)-amine trifluoroacetic acid salt] | 140 |
| COc1nc2c(c(Nc3ccc(C(F)(F)F)cc3)n1)CCN(c1ncccc1C(F)(F)F)CC2 [Example 62, [2-Methoxy-7-(3-trifluoromethyl-pyridin-2-yl)-6,7,8,9-tetrahydro-5H-pyrimido[4,5-d]azepin-4-yl]-(4-trifluoromethyl-phenyl)-amine] | 53 |
| CN(C)c1nc2c(c(Nc3ccc(Cl)c(Cl)c3)n1)CCN(c1ncccc1C(F)(F)F)CC2 [Example 63B, N^4-(3,4-Dichloro-phenyl)-N^2,N^2-dimethyl-7-(3-trifluoromethyl-pyridin-2-yl)-6,7,8,9-tetrahydro-5H-pyrimido[4,5-d]azepine-2,4-diamine trifluoroacetic acid salt] | 2500 |
| CN(C)c1nc2c(c(Nc3ccc(C(C)(C)C#N)cc3)n1)CCN(c1ncccc1C(F)(F)F)CC2 [Example 65B, 2-{4-[2-Dimethylamino-7-(3-trifluoromethyl-pyridin-2-yl)-6,7,8,9-tetrahydro-5H-pyrimido[4,5-d]azepin-4-ylamino]-phenyl}-2-methyl-propionitrile trifluoroacetic acid salt] | 650 |
| CC(C)(C)c1ccc(Nc2nc(CN3CCCCC3)nc3c2CCN(c2ncccc2C(F)(F)F)CC3)cc1 [Example 66B, (4-tert-Butyl-phenyl)-[2-piperidin-1-ylmethyl-7-(3-trifluoromethyl-pyridin-2-yl)-6,7,8,9-tetrahydro-5H-pyrimido[4,5-d]azepin-4-yl]-amine trifluoroacetic acid salt] | 930 |
| COCc1nc2c(c(Nc3ccc(C(C)(C)C)cc3)n1)CCN(c1ncccc1C(F)(F)F)CC2 [Example 67B, (4-tert-Butyl-phenyl)-[2-methoxymethyl-7-(3-trifluoromethyl-pyridin-2-yl)-6,7,8,9-tetrahydro-5H-pyrimido[4,5-d]azepin-4-yl]-amine trifluoroacetic acid salt] | 34 |
| CN(C)c1nc2c(c(Nc3ccc4c(c3)OCCO4)n1)CCN(c1ncccc1C(F)(F)F)CC2 [Example 68B, N^4-(2,3-Dihydro-benzo[1,4]dioxin-6-yl)-N^2,N^2-dimethyl-7-(3-trifluoromethyl-pyridin-2-yl)-6,7,8,9-tetrahydro-5H-pyrimido[4,5-d]azepine-2,4-diamine trifluoroacetic acid salt] | 3200 |
| Cc1nc2c(c(Nc3ccc(C(F)(F)F)cn3)n1)CCN(c1ncccc1C(F)(F)F)CC2 [Example 69, [2-Methyl-7-(3-trifluoromethyl-pyridin-2-yl)-6,7,8,9-tetrahydro-5H-pyrimido[4,5-d]azepin-4-yl]-(5-trifluoromethyl-pyridin-2-yl)-amine] | 500 |
| CN(C)c1nc2c(c(NCc3ccccc3)n1)CCN(c1ncccc1C(F)(F)F)CC2 [Example 70B, N^4-Benzyl-N^2,N^2-dimethyl-7-(3-trifluoromethyl-pyridin-2-yl)-6,7,8,9-tetrahydro-5H-pyrimido[4,5-d]azepine-2,4-diamine trifluoroacetic acid salt] | 4400 |
| CN(C)c1nc2c(c(Nc3ccc([N+](=O)[O-])cc3)n1)CCN(c1ncccc1C(F)(F)F)CC2 [Example 72B, N^2,N^2-Dimethyl-N^4-(4-nitro-phenyl)-7-(3-trifluoromethyl-pyridin-2-yl)-6,7,8,9-tetrahydro-5H-pyrimido[4,5-d]azepine-2,4-diamine trifluoroacetic acid salt] | 180 |
| CSc1nc2c(c(Nc3ccc(C(F)(F)F)cn3)n1)CCN(c1ncccc1C(F)(F)F)CC2 [Example 74B, [2-Methylsulfanyl-7-(3-trifluoromethyl-pyridin-2-yl)-6,7,8,9-tetrahydro-5H-pyrimido[4,5-d]azepin-4-yl]-(5-trifluoromethyl-pyridin-2-yl)-amine trifluoroacetic acid salt] | 3900 |
| CSc1nc2c(c(Nc3ccc(C(F)(F)F)nc3)n1)CCN(c1ncccc1C(F)(F)F)CC2 [Example 75B, [2-Methylsulfanyl-7-(3-trifluoromethyl-pyridin-2-yl)-6,7,8,9-tetrahydro-5H-pyrimido[4,5-d]azepin-4-yl]-(6-trifluoromethyl-pyridin-3-yl)-amine trifluoroacetic acid salt] | 40 |
| COC(=O)c1ccc(Nc2nc(N(C)C)nc3c2CCN(c2ncccc2C(F)(F)F)CC3)cc1 [Example 77B, 4-[2-Dimethylamino-7-(3-trifluoromethyl-pyridin-2-yl)-6,7,8,9-tetrahydro-5H-pyrimido[4,5-d]azepin-4-ylamino]-benzoic acid methyl ester trifluoroacetic acid salt] | 580 |
| CN(C)c1ccc(Nc2nc(N(C)C)nc3c2CCN(c2ncccc2C(F)(F)F)CC3)cc1 [Example 79B, N^4-(4-Dimethylamino-phenyl)-N^2,N^2-dimethyl-7-(3-trifluoromethyl-pyridin-2-yl)-6,7,8,9-tetrahydro-5H-pyrimido[4,5-d]azepine-2,4-diamine trifluoroacetic acid salt] | 1300 |
| COCc1nc2c(c(Nc3ccc(C(F)(F)F)c(Cl)c3)n1)CCN(c1ncccc1C(F)(F)F)CC2 [Example 80B, (3-Chloro-4-trifluoromethyl-phenyl)-[2-methoxymethyl-7-(3-trifluoromethyl-pyridin-2-yl)-6,7,8,9-tetrahydro-5H-pyrimido[4,5-d]azepin-4-yl]-amine trifluoroacetic acid salt] | 130 |
| COc1ccc(Nc2nc(N(C)C)nc3c2CCN(c2ncccc2C(F)(F)F)CC3)cc1 [Example 81B, N^4-(4-Methoxy-phenyl)-N^2,N^2-dimethyl-7-(3-trifluoromethyl-pyridin-2-yl)-6,7,8,9-tetrahydro-5H-pyrimido[4,5-d]azepine-2,4-diamine trifluoroacetic acid salt] | 970 |
| CN(C)c1nc2c(c(NC3Cc4ccccc4C3)n1)CCN(c1ncccc1C(F)(F)F)CC2 [Example 82B, N^4-Indan-2-yl-N^2,N^2-dimethyl-7-(3-trifluoromethyl-pyridin-2-yl)-6,7,8,9-tetrahydro-5H-pyrimido[4,5-d]azepine-2,4-diamine trifluoroacetic acid salt] | 2800 |
| Cc1cc(N)cnc1N1CCc2nc(C(C)C)nc(Nc3ccc(C(F)(F)F)cc3)c2CC1 [Example 83, [7-(5-Amino-3-methyl-pyridin-2-yl)-2-isopropyl-6,7,8,9-tetrahydro-5H-pyrimido[4,5-d]azepin-4-yl]-(4-trifluoromethyl-phenyl)-amine] | 990 |
| CC(C)c1nc2c(c(Nc3ccc(C(F)(F)F)cc3)n1)CCN(c1ccccc1N)CC2 [Example 84, [7-(2-Amino-phenyl)-2-isopropyl-6,7,8,9-tetrahydro-5H-pyrimido[4,5-d]azepin-4-yl]-(4-trifluoromethyl-phenyl)-amine] | > 20000 |
| CC(C)c1nc2c(c(Nc3ccc(C(F)(F)F)cc3)n1)CCN(c1ccccc1[N+](=O)[O-])CC2 [Example 85, [2-Isopropyl-7-(2-nitro-phenyl)-6,7,8,9-tetrahydro-5H-pyrimido[4,5-d]azepin-4-yl]-(4-trifluoromethyl-phenyl)-amine] | > 6700 |
| CC(C)c1nc2c(c(Nc3ccc(C(F)(F)F)cc3)n1)CCN(c1ncccc1N)CC2 [Example 86, [7-(3-Amino-pyridin-2-yl)-2-isopropyl-6,7,8,9-tetrahydro-5H-pyrimido[4,5-d]azepin-4-yl]-(4-trifluoromethyl-phenyl)-amine] | 850 |
| Cc1cc([N+](=O)[O-])cnc1N1CCc2nc(C(C)C)nc(Nc3ccc(C(F)(F)F)cc3)c2CC1 [Example 87, [2-Isopropyl-7-(3-methyl-5-nitro-pyridin-2-yl)-6,7,8,9-tetrahydro-5H-pyrimido[4,5-d]azepin-4-yl]-(4-trifluoromethyl-phenyl)-amine] | 350 |
